These results are taken from article PMC6508677, “Identification of druggable small molecule antagonists of the Plasmodium falciparum hexose transporter PfHT and assessment of ligand access to the glucose permeation pathway via FLAG-mediated protein engineering” (PLoS ONE, 2019).

The target in one test is T1, hGLUT2 (Homo sapiens, UniProt P11168).
T1 construct: expressed in transfected cells; host or cells: HEK293 (HEK293-FLIP, native hGLUT1 knocked down by shRNA)
T1 sequence (P11168 1-524): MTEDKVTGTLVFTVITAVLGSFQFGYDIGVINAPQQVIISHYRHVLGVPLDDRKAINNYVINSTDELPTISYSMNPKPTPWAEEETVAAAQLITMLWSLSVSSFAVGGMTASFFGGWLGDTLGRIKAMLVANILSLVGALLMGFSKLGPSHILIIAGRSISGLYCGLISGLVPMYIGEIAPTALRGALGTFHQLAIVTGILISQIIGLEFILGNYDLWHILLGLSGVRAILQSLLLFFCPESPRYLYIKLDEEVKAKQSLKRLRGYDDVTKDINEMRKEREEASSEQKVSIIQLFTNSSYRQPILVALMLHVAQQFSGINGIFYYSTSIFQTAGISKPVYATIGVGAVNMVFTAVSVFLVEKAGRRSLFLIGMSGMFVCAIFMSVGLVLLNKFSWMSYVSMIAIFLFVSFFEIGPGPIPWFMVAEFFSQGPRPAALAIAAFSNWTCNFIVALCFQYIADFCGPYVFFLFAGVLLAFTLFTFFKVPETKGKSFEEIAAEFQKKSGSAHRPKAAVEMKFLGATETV
Description: 2-DG uptake by HEK293 cells overexpressing hGLUT2. It is filed as cell-based. The note with it: for remaining activity at 0.001 µM: 0.001 µM compound; for remaining activity at 1.25 µM: 1.25 µM compound; for remaining activity at 5 µM / inhibition at 5 µM: 5 μM compound; for remaining activity at 80 µM: 80 µM compound; for remaining activity at 160 µM: 160 µM compound; for IC50: IC50 for inhibition of 2-DG uptake. An excerpt:
(§1) Generation of HEK293 cells overexpressing PfHT and human GLUTs 1–4 were described elsewhere. Briefly, HEK293 cells were transfected with pcDNA3.1 FLII12Pglu-7006 (Addgene), containing the fluorescence resonance energy transfer (FRET) glucose sensor (HEK293-FLIP) and PfHT, human GLUT1 (hGLUT1), hGLUT2, hGLUT3, hGLUT4, hGLUT5 or hGLUT8 using Optifect (Life Technologies) according to manufacturer’s specifications. To increase retention of GLUT8 at the plasma membrane, the dileucine sorting signal E^7E^8XXXLL was modified to R^7R^8XXXLL as described in [17]. Stable transfectants were selected for G418 and hygromycin resistance to select for FRET sensor and hexose transporter, respectively. HEK293-FLIP cells were also used to generate cells stably transfected with FLAG-tagged PfHT (FTPfHT). FLAG tag ([…]) followed by a triple glycine linker and a tobacco etch virus (TEV) protease site (ENLYFQS) followed by a triple glycine linker was added to the N-terminus of PfHT via PCR [18] using Phusion Hot Start II High-Fidelity DNA Polymerase (Fisher Scientific). Single clones were selected by comparing their abilities to transport glucose as assayed via FRET and radiolabeled hexose uptake. In all cell lines, except for HEK293 cells overexpressing hGLUT1 and hGLUT5, native hGLUT1 was knocked down using shRNA as described elsewhere. Transcript levels of the individual GLUTs expressed in each cell line are as described in [13, 15] and in S1 Fig.
(§2) Glucose uptake by P. falciparum was performed essentially as described. P. falciparum strain 3D7 was cultured in 100 mm tissue culture dishes (Techno Plastic Products) in a 2% suspension of human erythrocytes and RPMI 1640 medium until reaching > 7.5% parasitemia. Cells were pelleted via centrifugation and resuspended in RPMI 1640 medium. To determine the uptake of radiolabeled glucose into the parasite, parasites were isolated from infected erythrocytes by permeablization with saponin (0.05 w/v), followed by centrifugation, aspiration of supernatant and washing of the pellet 3X with saline solution (135 mM NaCl, 2 mM KCl, 25 mM HEPES, 0.2 mM glucose and 1 mM MgCl2; pH 7.1) to remove cellular debris. WU-1 or DMSO vehicle were added to 100 μl parasites (resuspended in saline) 5 min prior to the addition of 100 μl [^14C]2-DOG (0.2- μCi/ml final concentration). 2-DG uptake was stopped after 2 min by layering the entire reaction over 300 μl of an oil mixture (5:4 mix of dibutyl phthalate / dinonyl phthalate) in Eppendorf tubes and centrifuged at 15,850 × g for 2 mins. The ratio of the estimated intracellular concentration of radiolabel relative to the extracellular concentration were calculated as described. Uptake of radiolabeled hexose into HEK293 cells was measured in glucose-free HBSS as described previously. Briefly, cells were plated at 400,000 cells/well overnight at 37°C in 24-well plates pre-treated with PEI. After 30-min incubation at 37°C in glucose-free HBSS in the presence of vehicle or increasing concentrations of compound, 2-DG uptake was measured in glucose-free HBSS for 4 min at 37°C. Cultures were washed in ice-cold 1X PBS and lysed in 0.1% Triton X-100 in 1X PBS. Radiolabeled hexose uptake was determined by liquid scintillation counting (Ultima Gold, Thermo Fisher) and normalized to total protein per well. Uptake data are plotted as percent uptake relative to vehicle-treated cells. Kinetic analyses were performed using the indicated concentrations of substrate and WU-1, with quenching of uptake after 1 min incubation. Incubation times had been previously determined as being in the linear range of time-dependent radiolabeled hexose uptake (2 min for 2-DG uptake into freed parasites; 2 and 4 min for D-Frc and 2-DG uptake HEK cell lines, respectively). Data were fit by least squares nonlinear regression analysis using GraphPad Prism 6.0 software.

For the next test, the target named is T2, hGLUT3 (Homo sapiens, UniProt P11169).
T2 construct: expressed in transfected cells; host or cells: HEK293 (HEK293-FLIP, native hGLUT1 knocked down by shRNA)
T2 sequence (P11169 1-496): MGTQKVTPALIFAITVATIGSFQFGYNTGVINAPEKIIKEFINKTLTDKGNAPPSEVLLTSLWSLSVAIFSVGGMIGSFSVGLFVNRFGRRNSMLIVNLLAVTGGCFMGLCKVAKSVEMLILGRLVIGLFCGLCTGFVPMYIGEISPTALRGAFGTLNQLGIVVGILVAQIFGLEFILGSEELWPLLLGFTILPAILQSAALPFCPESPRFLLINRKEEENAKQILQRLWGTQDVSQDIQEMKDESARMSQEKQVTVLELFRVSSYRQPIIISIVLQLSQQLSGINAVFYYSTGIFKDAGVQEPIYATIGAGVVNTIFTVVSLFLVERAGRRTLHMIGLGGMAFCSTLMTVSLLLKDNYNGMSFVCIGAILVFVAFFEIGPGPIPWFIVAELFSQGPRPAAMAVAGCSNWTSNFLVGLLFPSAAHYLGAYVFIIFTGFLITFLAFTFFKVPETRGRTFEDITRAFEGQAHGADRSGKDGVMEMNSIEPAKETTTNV
Description: 2-DG uptake by HEK293 cells overexpressing hGLUT3. It is filed as cell-based. The note with it: for remaining activity at 0.001 µM: 0.001 µM compound; for remaining activity at 5 µM / inhibition at 5 µM: 5 μM compound; for remaining activity at 40 µM: 40 µM compound; for remaining activity at 80 µM: 80 µM compound; for remaining activity at 160 µM: 160 µM compound; for remaining activity at 225 µM: 225 µM compound; for IC50: IC50 for inhibition of 2-DG uptake.
Excerpt: as §1, §2

The mark [1] stands for this setting: HEK293, 4 min, GLUT2, read-out: 2-DG uptake (percent uptake relative to vehicle), AVE per experiment.
Where [2] appears, read: HEK293, 4 min, GLUT2, 2.5 µM compound, read-out: 2-DG uptake (percent uptake relative to vehicle), AVE per experiment.
[3] abbreviates: HEK293, 4 min, GLUT2, read-out: % Inhibition of 2-DG uptake vs vehicle.
The mark [4] stands for this setting: GLUT2 cell line, mean/reported value.
Where [5] appears, read: individual experiments, GLUT2, Expt 1-3.
The mark [6] stands for this setting: HEK293, 4 min, GLUT3, read-out: 2-DG uptake (percent uptake relative to vehicle), AVE per experiment.
Where [7] appears, read: HEK293, 4 min, GLUT3, 2.5 µM compound, read-out: 2-DG uptake (percent uptake relative to vehicle), AVE per experiment.
Where [8] appears, read: HEK293, 4 min, GLUT3, read-out: % Inhibition of 2-DG uptake vs vehicle.
Where [9] appears, read: HEK293, 4 min, GLUT3, 10 µM compound, read-out: 2-DG uptake (percent uptake relative to vehicle), AVE per experiment.
Setting [10] is: GLUT3 cell line, mean/reported value.
[11] abbreviates: individual experiments, GLUT3, Expt 1-3.

Values joined by “and” are separate entries in the source; they are usually repeats but may differ in a detail not shown here. Equal entries are not always repeated.

In general, inhibition refers to the drop in the measured response relative to a control, in per cent. Broadly, the IC50 is the point on the concentration scale where inhibition reaches its midpoint. Consider `COc1c(Br)cc([N+](=O)[O-])c(OC)c1C(=O)NC(=O)Nc1c(C)cccc1Cl` [WU-2, 3-(3-bromo-2,6-dimethoxy-5-nitrobenzoyl)-1-(2-chloro-6-methylphenyl)urea], for which the “Maximum Inhibition (%)” value at hGLUT2 (2-DG uptake, GLUT2 cell line) is 62.0%. Further, the remaining activity at 0.001 µM at hGLUT2 (setting [1]) and on hGLUT3 (setting [6]) was 100% throughout. The remaining activity at 1.25 µM on hGLUT2 (setting [1]) came to 102%. Also, the remaining activity at 2.5 µM on hGLUT2 (setting [2]) came to 83.6%; on hGLUT3 (setting [7]) it was 92.9%. Moreover, the results for the remaining activity at 5 µM at hGLUT2 (setting [1]) and at hGLUT3 (setting [6]) were 74.5% and 92.4%, respectively. Further, the inhibition at 5 µM on hGLUT2 (setting [3]) and at hGLUT3 (setting [8]) was 10 to 12% each time. For the same compound, the remaining activity at 10 µM on hGLUT2 (HEK293, 4 min, GLUT2, 10 µM compound, read-out: 2-DG uptake (percent uptake relative to vehicle), AVE per experiment) was 62.8%; at hGLUT3 (setting [9]), 95.1%. On hGLUT2 (HEK293, 4 min, GLUT2, 20 µM compound, read-out: 2-DG uptake (percent uptake relative to vehicle), AVE per experiment), the remaining activity at 20 µM was 64%. Besides, the remaining activity at 40 µM on hGLUT2 (HEK293, 4 min, GLUT2, 40 µM compound, read-out: 2-DG uptake (percent uptake relative to vehicle), AVE per experiment) came to 39.5%; at hGLUT3 (setting [6]) it was 91.7%. Besides, the figures for the remaining activity at 80 µM at hGLUT2 (setting [1]) and at hGLUT3 (setting [6]) were 35.2% and 81.9%, respectively. Besides, the values for the remaining activity at 160 µM at hGLUT2 (setting [1]) and at hGLUT3 (setting [6]) were 42.1% and 68.7%, respectively. The remaining activity at 225 µM on hGLUT2 (HEK293, 4 min, GLUT2, 225 µM compound, read-out: 2-DG uptake (percent uptake relative to vehicle), AVE per experiment) was 30.9%; on hGLUT3 (setting [6]), 77.5%. The half-maximal inhibitory concentration (IC50) at hGLUT2 (setting [4]) was 15.9 ± 2.5 µM; against hGLUT2 (setting [5]) it was 14.1 µM and 20.8 µM and 12.9 µM; on hGLUT3 (setting [10]), more than 50 µM; at hGLUT3 (setting [11]), 103 µM and 61.6 µM and 11.4 µM.

Consider `Cc1ccc(S(=O)(=O)CCNC(=O)c2c(-c3c(Cl)cccc3Cl)noc2C)cc1` [WU-1, 3-(2,6-dichlorophenyl)-5-methyl-N-[2-(4-methylbenzenesulfonyl)ethyl]-1,2-oxazole-4-carboxamide], for which the “IC50 for inhibition of 2-DG uptake, individual experiments” value on hGLUT2 (GLUT2, Expt 1-3) was “ambiguous”; against hGLUT3 (GLUT3, Expt 1-3) it was “ambiguous”. The remaining activity at 0.001 µM on hGLUT2 (setting [1]) and on hGLUT3 (setting [6]) was 100% each time. The remaining activity at 1.25 µM on hGLUT2 (setting [1]) was determined as 108%; at hGLUT3 (HEK293, 4 min, GLUT3, 1.25 µM compound, read-out: 2-DG uptake (percent uptake relative to vehicle), AVE per experiment), 110%. Also, the remaining activity at 2.5 µM on hGLUT2 (setting [2]) came to 110%; at hGLUT3 (setting [7]), 103%. For the same compound, the remaining activity at 5 µM worked out at 83% at hGLUT2 (setting [1]) and 99.5% on hGLUT3 (setting [6]). Besides, the inhibition at 5 µM on hGLUT2 (setting [3]) was approximately 10%; at hGLUT3 (setting [8]), 0.48%. Moreover, the remaining activity at 80 µM on hGLUT2 (setting [1]) was determined as 73.8%; on hGLUT3 (setting [6]) it was 76.4%. In addition, the results for the remaining activity at 160 µM at hGLUT2 (setting [1]) and at hGLUT3 (setting [6]) were 54.5% and 80%, respectively. Besides, the IC50 is more than 50 µM against hGLUT2 (setting [4]), 52.4 µM against hGLUT2 (setting [5]), more than 100 µM at hGLUT3 (setting [10]) and more than 225 µM on hGLUT3 (setting [11]). Further, the remaining activity at 10 µM at hGLUT3 (setting [9]) turned out to be 103%. Moreover, at hGLUT3 (HEK293, 4 min, GLUT3, 20 µM compound, read-out: 2-DG uptake (percent uptake relative to vehicle), AVE per experiment), the remaining activity at 20 µM was determined as 102%. Also, the remaining activity at 40 µM on hGLUT3 (setting [6]) is 82.5%. For the same compound, the remaining activity at 225 µM at hGLUT3 (setting [6]) worked out at 75.3%.

Consider `COc1cc(/C=C2\COC/C(=C\c3cc(OC)c(OC)c(OC)c3)C2=O)cc(OC)c1OC` [WU-5, (3E,5E)-3,5-bis[(3,4,5-trimethoxyphenyl)methylidene]oxan-4-one], for which the inhibition at 2.5 µM at hGLUT2 (HEK293, 4 min, GLUT2, 2.5 µM compound, read-out: % Inhibition of 2-DG uptake vs vehicle) is approximately 70%; on hGLUT3 (HEK293, 4 min, GLUT3, 2.5 µM compound, read-out: % Inhibition of 2-DG uptake vs vehicle), approximately 20%.

With `COc1cc(/C=N/NC(=O)c2cc(-c3ccccc3)sc2N)cc(OC)c1OC` [WU-3, 2-amino-5-phenyl-N'-[(E)-(3,4,5-trimethoxyphenyl)methylidene]thiophene-3-carbohydrazide], on hGLUT3 (HEK293, 4 min, GLUT3, 10 µM compound, read-out: % Inhibition of 2-DG uptake vs vehicle), the inhibition at 10 µM was not below 50%.
